{"source": "patent US10849904B2", "about": "“Methods for treatment of retinal disease by photoreceptor gene expression modulation” (University of Washington, priority 2015, dated 2020)", "key": {"Thrb (Trβ2)": {"test_system": "Thrb (Trβ2)", "assay": "Cone gene expression, Thrb (FIG. 5)"}, "[1]": {"test_system": "intact retinas from P12 wild type mice", "assay": "P12 mouse retinal explant culture, qPCR for rod gene expression", "type": "cell-based", "details": "P12 explants; for dose-response, Nrl, Nr2e3, and Rho expression: 2-3 days; for relative rhodopsin (Rho) expression: 1 μM, 2 days", "from_the_text": "To identify functional Nr2e3 antagonists, compounds were cheminformatically searched and structural analogs of a putative Nr2e3 interacting compound with unknown function were collected. See FIGS. 2 and 4 for the structures of the compounds. The collected compounds were then screened in a physiologically relevant primary culture assay using intact retinas from postnatal day 12-13 (P12-13) C57BL/6 mice for suppression of Rho expression (See FIG. 6A). After a 2 day culture period with media containing DMSO or compounds at 1 μM, the retinas were collected and assessed Rho expression by qPCR. Rho was chosen because it is a well-described target of Nr2e3 in rod photoreceptors. […] This analysis also provided an initial structure-activity relationship.\nNr2e3 loss-of-function mutations lead to a reduction in rod gene expression. To determine whether the same was true for PR1 (FIG. 6D), explant cultures of P12 retina as above were treated and assayed for other rod photoreceptor genes. After 2 days in culture, PR1 decreased the expression of the rod specific genes Nrl, Nr2e3, Rho, Gnat1, and Pde6b compared to DMSO treatment by qPCR analysis (FIG. 6C). […] To determine the dose-response relationship between PR1 concentration and expression of rod genes, retinas from P12 mice were explanted in media containing DMSO or 0.1, 1, 5, or 10 μM PR1 for 2-3 days and assayed Nrl, Nr2e3, and Rho expression by qPCR. […] PR1 was tested to determine whether it could cause a reduction in Rho expression in human rod photoreceptors as well. Pairs of 113 day post-conception retinas were explanted in media with DMSO or 10 μM PR1 for 7 or 23 days. After 7 and 23 days in culture, PR1 decreased the expression of Rho compared to DMSO treatment (FIG. 6F), similar to the effect observed in mouse retinal explants.\nIntact retinas without RPE from mice of various strains and ages as indicated were explanted on 0.4 μm pore tissue culture inserts (Millipore) as previously described (Ueki, Y., et al., P53 is required for the developmental restriction in Muller glial proliferation in mouse retina. Glia, 2012. 60(10): p. 1579-89; Ueki, Y., et al., A transient wave of BMP signaling in the retina is necessary for Muller glial differentiation. Development, 2015. 142(3): p. 533-43. Full media (DMEM/F12 (1:1) containing 1% dialyzed FBS, 1% Pen Strep, 0.3% D+ glucose, 2% B27, and 1% N2) changes were performed every other day and small molecules were used at 0.1 μM to 10 μM. Where indicated, EdU (Invitrogen) was included in the media at 5 μg/mL and visualized by staining with the Click-iT EdU Alexa Fluor kit (Thermo Fisher Scientific). For human retinal explant cultures, tissue from 113 day post-conception fetuses was obtained from the University of Washington Birth Defects Laboratory and explanted on 0.4 μm pore tissue culture inserts (Millipore) in media (Neurobasal A with 1% FBS, 1% Pen Strep, 1% N2, 1% B27) containing 10 μM Photoregulin1 or an equal volume of DMSO.\nRNA was isolated using TRIzol (Invitrogen) and cDNA was synthesized using the iScript cDNA synthesis kit (Bio-Rad) following an intervening DNase treatment with RQ1 RNase-free DNase (Promega). SSO Fast (Bio-Rad) was used for quantitative real-time PCR. For analysis, values were normalized to Gapdh and ΔΔCt between DMSO and compound-treated samples was expressed as percent of DMSO treated controls (100*2^ΔΔCt). Two-way Student's t-tests were performed on ΔCt values."}}, "note": "Entries after “also recorded” stand apart in the source; their conditions may differ."}
{"molecule": "Cc1cc(C)cc(NC(=O)CCc2nc3sc4c(c3c(=O)[nH]2)CCCC4)c1", "note": "[PR1, N-(3,5-dimethylphenyl)-3-(4-oxo-5,6,7,8-tetrahydro-3H-[1]benzothiolo[2,3-d]pyrimidin-2-yl)propanamide]", "values": [{"measurement": "cone gene expression, Thrb (Trβ2)", "setting": "Thrb (Trβ2)", "value": "increase"}, {"measurement": "dose-response, Nrl, Nr2e3, and Rho expression", "setting": "[1]; 0.1 uM", "value": "Some effect"}, {"measurement": "relative rhodopsin (Rho) expression", "setting": "[1]; vs DMSO", "value": "substantially decrease Rho expression; also recorded: decreased"}, {"measurement": "relative rhodopsin (Rho) expression", "setting": "[1]; vs DMSO, listed as CA88", "value": "reducing rhodopsin expression"}, {"measurement": "Crx expression", "setting": "[1]; 2 days in culture, vs DMSO", "value": "did not significantly decrease"}, {"measurement": "Gnat1 expression", "setting": "[1]; 2 days in culture, vs DMSO", "value": "decreased"}, {"measurement": "Gnb1 expression", "setting": "[1]; 2 days in culture, vs DMSO", "value": "did not significantly decrease"}, {"measurement": "Nr2e3 expression", "setting": "[1]; 2 days in culture, vs DMSO", "value": "decreased"}, {"measurement": "Nrl expression", "setting": "[1]; 2 days in culture, vs DMSO", "value": "decreased"}, {"measurement": "Pde6b expression", "setting": "[1]; 2 days in culture, vs DMSO", "value": "decreased"}, {"measurement": "dose-response, Nrl, Nr2e3, and Rho expression", "setting": "[1]; higher concentrations (1, 5, or 10 μM)", "value": "statistically significant reductions"}]}
